Data reported in patent publication US20130096212A1, “Method and a Kit to Predict Response to Antidepressant Treatment” (UNIVERSITY OF TARTU, priority 2011, published 2013).

Experiments:
[1] = test system: outpatients with Major Depressive Disorder; assay: 12-week open-label escitalopram treatment of MDD outpatients, Estonian sample (MADRS, HAM-D, CGI), also by rs41271330 genotype; type: in vivo, human; settings: for patients with moderate or severe depression (MADRS score 16 or more): end of 12 weeks
Description: The study sample consisted of 135 outpatients with Major Depressive Disorder, MDD (mean age 31.1±11.6 years, 68% females) recruited at the Psychiatry Clinic of Tartu University Hospital in Estonia. The diagnosis according to DSM-IV criteria was verified using Mini International Neuropsychiatric Interview (M.I.N.I. 5.0.0) and substantiated by psychiatric history and medical records. At least moderate severity of depression was required for inclusion as indicated by a Montgomery-Asberg Depression Rating Scale (MADRS) total score of 22 or higher. MDD patients with a secondary current comorbid anxiety disorder were included in this study, except for obsessive-compulsive disorder, posttraumatic stress disorder, or panic disorder, and these comprised 51% of the sample. Patients were excluded if they met diagnostic criteria for any of the following: bipolar disorder, psychotic disorder or features, current eating disorders, mental retardation, any pervasive developmental disorder or cognitive disorder, or alcohol or drug abuse-related disorders within 12 months prior to baseline. Additional exclusion criteria were acute infections, neurological or any other unstable general disorders, serious suicide risk, formal behaviour therapy, or systematic psychotherapy, pregnancy or breastfeeding. None of patients was known to have a history of hypersensitivity or non-response to escitalopram or other SSRIs. The Human Studies Ethics Committee of the University of Tartu and State Agency of Medicines had approved the study protocol, which was in accordance with Declaration of Helsinki. All participants provided their written informed consent.
The patients were treated with escitalopram 10-20 mg/day for 12 weeks using an open-label, placebo non-controlled study design. No other medications, including anti-inflammatory drugs, were allowed during the study, except for hormonal contraceptives and zolpidem or zopiclone for insomnia. Clinical severity and treatment response were assessed bi-weekly using the MADRS and Clinical Global Impression scale (CGI). Hamilton Depression Scale (HAM-D) was also used as a secondary scale for clinical assessments. Additionally, the patients were asked to evaluate the depressive symptoms on the Beck Depression Inventory (BDI) and possible side effects on the Toronto Side-effect Scale (TSES) at each visit. All patients started treatment with escitalopram at a dose of 10 mg/day for the first 4 weeks. The patients showing at least 50% decline in the MADRS total score at week 4 continued taking 10 mg of escitalopram until the end of study. […] At the end of week 12 the patients were defined as responders if the decrease in both MADRS and HAM-D total scores was at least 50% and score on the CGI improvement scale was 2 or less. The remitters were defined if the scores were less than 12 on the MADRS and less than 8 on the HAM-D accordingly to earlier clinical trials. […] The severity of depressive symptoms and treatment response were rated blindly to genotypes by one psychiatrist. Each visit the patients were also asked to report about their regularity of taking the medication.
(§1) These 38 markers were genotyped in the remaining 116 individuals, and tested for association with the clinical outcome. Three different outcome definitions were used: MADRS score at the final visit (week 12), relative change (percentage) in MADRS score since baseline, and absolute change in MADRS score since baseline. For each outcome, a univariate additive regression model was fitted to assess the association, as well as a multivariate model, adjusted for age, gender, age at first depression episode, baseline MADRS and BDI scores. Additionally a mixed-effects longitudinal model was fit for MADRS scores at week 0 to week 12, using a random subject-specific intercept. Also here, both unadjusted and adjusted models were fit. […]

[2] = test system: MDD patients; assay: Replication sample: MDD patients treated with escitalopram for 12 weeks, MADRS change by rs41271330 genotype; type: in vivo, human; settings: 394 patients, SE=3%
Description: as §1, with “Replication sample consisted of 394 patients treated with escitalopram for 12 weeks. All the patients were of European origin. […] For validation of significant markers from previous step 5 SNPs were genotyped with pre-designed Taqman assays and one SNP was genotyped with Sanger sequencing. These” for “These”, “fit. Age at recruitment, gender, age at first depression episode and baseline BDI score appeared to be independently predictive (p<0.05) for at least one of the outcomes after adjusting for other covariates in a multivariate regression model and were therefore used as adjustment variables for genotype-outcome association.” for “fit.”

**Q.** `CN(C)CCC[C@@]1(c2ccc(F)cc2)OCc2cc(C#N)ccc21` [escitalopram] was tested. Which “patients who discontinued treatment due to lack of efficacy or side effects” value ([1]; 12-week study) did it give?
**A.** 6.7%

**Q.** What about the “decrease of relative MADRS score reduction from baseline per copy of the rs41271330 minor allele” value ([1]; Estonian sample, 116 patients, SE=6%) of the same compound?
**A.** 18%

**Q.** What about the “patients who needed an increased dose after the initial 4 weeks” value ([1]; carriers of rs41271330 minor allele) of the same compound?
**A.** 88.9%

**Q.** And the “patients with moderate or severe depression (MADRS score 16 or more)” value ([1]; carriers of rs41271330 minor allele (A), 14/27)?
**A.** 52%

**Q.** What about the “patients with moderate or severe depression (MADRS score 16 or more)” value ([1]; homozygous for rs41271330 major allele (G), 19/89) of the same compound?
**A.** 22%

**Q.** And the “patients with insufficient or partial response to treatment” value ([1]; end of week 12)?
**A.** 32.6%

**Q.** And the “patients defined as responders” value ([1]; end of week 12, 10-20 mg/day, 135 MDD outpatients, at least 50% decrease in MADRS and HAM-D and CGI improvement 2 or less)?
**A.** 60.7%

**Q.** And the “patients who achieved remission” value ([1]; end of week 12, MADRS less than 12 and HAM-D less than 8, of total sample)?
**A.** 58.5%

**Q.** And the “patients who needed an increased dose after the initial 4 weeks” value ([1]; homozygous for rs41271330 major allele)?
**A.** 62.9%

**Q.** And the “responders among the patients whose daily dose was increased and kept at 20 mg” value ([1]; of 85 patients on 20 mg, end of study)?
**A.** 41 patients

**Q.** And the “number of patients with MADRS score at week 12 of 0...7” value ([1]; rs41271330 A/G + A/A)?
**A.** 9

**Q.** And the “number of patients with MADRS score at week 12 of 8...15” value ([1]; rs41271330 A/G + A/A)?
**A.** 4

**Q.** What about the “number of patients with MADRS score at week 12 of 16...25” value ([1]; rs41271330 A/G + A/A) of the same compound?
**A.** 10

**Q.** What about the “number of patients with MADRS score at week 12 of >25” value ([1]; rs41271330 A/G + A/A) of the same compound?
**A.** 4

**Q.** And the “share of patients with MADRS score at week 12 of 0...7” value ([1]; rs41271330 A/G + A/A)?
**A.** 33%

**Q.** What about the “share of patients with MADRS score at week 12 of 8...15” value ([1]; rs41271330 A/G + A/A) of the same compound?
**A.** 15%

**Q.** What about the “share of patients with MADRS score at week 12 of 16...25” value ([1]; rs41271330 A/G + A/A) of the same compound?
**A.** 37%

**Q.** What about the “share of patients with MADRS score at week 12 of >25” value ([1]; rs41271330 A/G + A/A) of the same compound?
**A.** 15%

**Q.** And the “number of patients with MADRS score at week 12 of 0...7” value ([1]; rs41271330 G/G)?
**A.** 61

**Q.** And the “number of patients with MADRS score at week 12 of 8...15” value ([1]; rs41271330 G/G)?
**A.** 9

**Q.** What about the “number of patients with MADRS score at week 12 of 16...25” value ([1]; rs41271330 G/G) of the same compound?
**A.** 15

**Q.** And the “number of patients with MADRS score at week 12 of >25” value ([1]; rs41271330 G/G)?
**A.** 4

**Q.** What about the “share of patients with MADRS score at week 12 of 0...7” value ([1]; rs41271330 G/G) of the same compound?
**A.** 69%

**Q.** And the “share of patients with MADRS score at week 12 of 8...15” value ([1]; rs41271330 G/G)?
**A.** 10%

**Q.** What about the “share of patients with MADRS score at week 12 of 16...25” value ([1]; rs41271330 G/G) of the same compound?
**A.** 17%

**Q.** And the “share of patients with MADRS score at week 12 of >25” value ([1]; rs41271330 G/G)?
**A.** 4%

**Q.** What about the “decrease of relative MADRS score reduction from baseline per copy of the rs41271330 minor allele” value [2] of the same compound?
**A.** 7%
